The CheMixHub viscosity set
± gives the uncertainty stated by the source.

Experiment: xn = mol fraction of the nth substance listed

## CCCC(C)=O + C1CCCCC1
293.15 K, 101.33 kPa, x2 = 0.0483
  viscosity: 0.5 ± 0.009 mPa·s
293.15 K, 101.33 kPa, x2 = 0.0981
  viscosity: 0.506 ± 0.009 mPa·s
293.15 K, 101.33 kPa, x2 = 0.1932
  viscosity: 0.516 ± 0.009 mPa·s
293.15 K, 101.33 kPa, x2 = 0.296
  viscosity: 0.537 ± 0.01 mPa·s
293.15 K, 101.33 kPa, x2 = 0.3957
  viscosity: 0.562 ± 0.01 mPa·s
293.15 K, 101.33 kPa, x2 = 0.4987
  viscosity: 0.594 ± 0.01 mPa·s
293.15 K, 101.33 kPa, x2 = 0.5982
  viscosity: 0.625 ± 0.011 mPa·s
293.15 K, 101.33 kPa, x2 = 0.7002
  viscosity: 0.68 ± 0.012 mPa·s
293.15 K, 101.33 kPa, x2 = 0.8051
  viscosity: 0.748 ± 0.012 mPa·s
293.15 K, 101.33 kPa, x2 = 0.9024
  viscosity: 0.847 ± 0.014 mPa·s
293.15 K, 101.33 kPa, x2 = 0.9503
  viscosity: 0.898 ± 0.015 mPa·s
298.15 K, 101.33 kPa, x2 = 0.0483
  viscosity: 0.473 ± 0.009 mPa·s
298.15 K, 101.33 kPa, x2 = 0.0981
  viscosity: 0.477 ± 0.009 mPa·s
298.15 K, 101.33 kPa, x2 = 0.1932
  viscosity: 0.486 ± 0.009 mPa·s
298.15 K, 101.33 kPa, x2 = 0.296
  viscosity: 0.504 ± 0.009 mPa·s
298.15 K, 101.33 kPa, x2 = 0.3957
  viscosity: 0.528 ± 0.009 mPa·s
298.15 K, 101.33 kPa, x2 = 0.4987
  viscosity: 0.554 ± 0.01 mPa·s
298.15 K, 101.33 kPa, x2 = 0.5982
  viscosity: 0.591 ± 0.01 mPa·s
298.15 K, 101.33 kPa, x2 = 0.7002
  viscosity: 0.632 ± 0.011 mPa·s
298.15 K, 101.33 kPa, x2 = 0.8051
  viscosity: 0.694 ± 0.012 mPa·s
298.15 K, 101.33 kPa, x2 = 0.9024
  viscosity: 0.781 ± 0.013 mPa·s
298.15 K, 101.33 kPa, x2 = 0.9503
  viscosity: 0.826 ± 0.014 mPa·s
303.15 K, 101.32 kPa, x2 = 0.1524
  viscosity: 0.474 ± 0.004 mPa·s
303.15 K, 101.32 kPa, x2 = 0.2942
  viscosity: 0.496 ± 0.004 mPa·s
303.15 K, 101.32 kPa, x2 = 0.3752
  viscosity: 0.507 ± 0.004 mPa·s
303.15 K, 101.32 kPa, x2 = 0.4326
  viscosity: 0.517 ± 0.004 mPa·s
303.15 K, 101.32 kPa, x2 = 0.5075
  viscosity: 0.532 ± 0.004 mPa·s
303.15 K, 101.32 kPa, x2 = 0.5951
  viscosity: 0.555 ± 0.004 mPa·s
303.15 K, 101.32 kPa, x2 = 0.7377
  viscosity: 0.607 ± 0.004 mPa·s
303.15 K, 101.32 kPa, x2 = 0.8891
  viscosity: 0.695 ± 0.004 mPa·s
303.15 K, 101.33 kPa, x2 = 0.0483
  viscosity: 0.447 ± 0.008 mPa·s
303.15 K, 101.33 kPa, x2 = 0.0981
  viscosity: 0.452 ± 0.008 mPa·s
303.15 K, 101.33 kPa, x2 = 0.1932
  viscosity: 0.458 ± 0.008 mPa·s
303.15 K, 101.33 kPa, x2 = 0.296
  viscosity: 0.476 ± 0.009 mPa·s
303.15 K, 101.33 kPa, x2 = 0.3957
  viscosity: 0.498 ± 0.009 mPa·s
303.15 K, 101.33 kPa, x2 = 0.4987
  viscosity: 0.52 ± 0.009 mPa·s
303.15 K, 101.33 kPa, x2 = 0.5982
  viscosity: 0.548 ± 0.01 mPa·s
303.15 K, 101.33 kPa, x2 = 0.7002
  viscosity: 0.594 ± 0.01 mPa·s
303.15 K, 101.33 kPa, x2 = 0.8051
  viscosity: 0.645 ± 0.011 mPa·s
303.15 K, 101.33 kPa, x2 = 0.9024
  viscosity: 0.724 ± 0.012 mPa·s
303.15 K, 101.33 kPa, x2 = 0.9503
  viscosity: 0.762 ± 0.013 mPa·s

## CCCC(C)=O + C1CCCC1
293.15 K, 101.33 kPa, x2 = 0.0411
  viscosity: 0.49 ± 0.009 mPa·s
293.15 K, 101.33 kPa, x2 = 0.0966
  viscosity: 0.481 ± 0.009 mPa·s
293.15 K, 101.33 kPa, x2 = 0.1985
  viscosity: 0.471 ± 0.009 mPa·s
293.15 K, 101.33 kPa, x2 = 0.3214
  viscosity: 0.458 ± 0.009 mPa·s
293.15 K, 101.33 kPa, x2 = 0.3876
  viscosity: 0.452 ± 0.008 mPa·s
293.15 K, 101.33 kPa, x2 = 0.5026
  viscosity: 0.443 ± 0.008 mPa·s
293.15 K, 101.33 kPa, x2 = 0.6097
  viscosity: 0.436 ± 0.008 mPa·s
293.15 K, 101.33 kPa, x2 = 0.6934
  viscosity: 0.433 ± 0.008 mPa·s
293.15 K, 101.33 kPa, x2 = 0.7996
  viscosity: 0.429 ± 0.008 mPa·s
293.15 K, 101.33 kPa, x2 = 0.9054
  viscosity: 0.429 ± 0.008 mPa·s
293.15 K, 101.33 kPa, x2 = 0.9515
  viscosity: 0.433 ± 0.008 mPa·s
298.15 K, 101.33 kPa, x2 = 0.0411
  viscosity: 0.463 ± 0.009 mPa·s
298.15 K, 101.33 kPa, x2 = 0.0966
  viscosity: 0.455 ± 0.008 mPa·s
298.15 K, 101.33 kPa, x2 = 0.1985
  viscosity: 0.445 ± 0.008 mPa·s
298.15 K, 101.33 kPa, x2 = 0.3214
  viscosity: 0.433 ± 0.008 mPa·s
298.15 K, 101.33 kPa, x2 = 0.3876
  viscosity: 0.428 ± 0.008 mPa·s
298.15 K, 101.33 kPa, x2 = 0.5026
  viscosity: 0.419 ± 0.008 mPa·s
298.15 K, 101.33 kPa, x2 = 0.6097
  viscosity: 0.414 ± 0.008 mPa·s
298.15 K, 101.33 kPa, x2 = 0.6934
  viscosity: 0.41 ± 0.008 mPa·s
298.15 K, 101.33 kPa, x2 = 0.7996
  viscosity: 0.407 ± 0.008 mPa·s
298.15 K, 101.33 kPa, x2 = 0.9054
  viscosity: 0.406 ± 0.008 mPa·s
298.15 K, 101.33 kPa, x2 = 0.9515
  viscosity: 0.41 ± 0.008 mPa·s
303.15 K, 101.33 kPa, x2 = 0.0411
  viscosity: 0.44 ± 0.008 mPa·s
303.15 K, 101.33 kPa, x2 = 0.0966
  viscosity: 0.431 ± 0.008 mPa·s
303.15 K, 101.33 kPa, x2 = 0.1985
  viscosity: 0.422 ± 0.008 mPa·s
303.15 K, 101.33 kPa, x2 = 0.3214
  viscosity: 0.41 ± 0.008 mPa·s
303.15 K, 101.33 kPa, x2 = 0.3876
  viscosity: 0.406 ± 0.008 mPa·s
303.15 K, 101.33 kPa, x2 = 0.5026
  viscosity: 0.398 ± 0.008 mPa·s
303.15 K, 101.33 kPa, x2 = 0.6097
  viscosity: 0.392 ± 0.008 mPa·s
303.15 K, 101.33 kPa, x2 = 0.6934
  viscosity: 0.39 ± 0.008 mPa·s
303.15 K, 101.33 kPa, x2 = 0.7996
  viscosity: 0.387 ± 0.008 mPa·s
303.15 K, 101.33 kPa, x2 = 0.9054
  viscosity: 0.386 ± 0.008 mPa·s
303.15 K, 101.33 kPa, x2 = 0.9515
  viscosity: 0.389 ± 0.008 mPa·s

## CCCC(C)=O + CCC(C)=O
293.15 K, 101 kPa, x2 = 0.2
  viscosity: 0.483 ± 0.005 mPa·s
293.15 K, 101 kPa, x2 = 0.4
  viscosity: 0.461 ± 0.005 mPa·s
293.15 K, 101 kPa, x2 = 0.6
  viscosity: 0.439 ± 0.005 mPa·s
293.15 K, 101 kPa, x2 = 0.8
  viscosity: 0.418 ± 0.005 mPa·s
313.15 K, 101 kPa, x2 = 0.2
  viscosity: 0.388 ± 0.004 mPa·s
313.15 K, 101 kPa, x2 = 0.4
  viscosity: 0.372 ± 0.004 mPa·s
313.15 K, 101 kPa, x2 = 0.6
  viscosity: 0.357 ± 0.004 mPa·s
313.15 K, 101 kPa, x2 = 0.8
  viscosity: 0.341 ± 0.004 mPa·s
